One assay relates to Theileria parva. The experiment in a line: Inhibition of Theileria parva deoxyhypusine synthase expressed in Escherichia coli Rosetta cells assessed as reduction in deoxyhypusine level at 2 uM.
The test system of the next assay is Plasmodium falciparum. The assay can be described thus: Antiplasmodial activity against Plasmodium falciparum 3D7 assessed as inhibition of parasite growth at 5 uM. It counts as functional.

For the compound `Fc1ccc2[nH]c3c(NCCCN4CCOCC4)ncnc3c2c1`, in the assay on Theileria parva, the inhibition came to 23%. Also, the inhibition at 5 µM in the assay on Plasmodium falciparum came to 98%.

As for `O=[N+]([O-])c1ccc(C=NNc2nc3ccccc3[nH]2)cc1`, in the assay with Theileria parva, the inhibition stood at 56%. In addition, in the assay with Plasmodium falciparum, the inhibition at 5 µM amounted to 99%.

For `CNCCCNc1ccnc2cc(Cl)ccc12`, the inhibition in the assay on Theileria parva was determined as 13%. Also, the inhibition at 5 µM in the assay with Plasmodium falciparum was 98%.

Broadly, the inhibition is the percentage by which the read-out fell short of the control.

These data come from ChEMBL document CHEMBL3351321, “Target evaluation of deoxyhypusine synthase from Theileria parva the neglected animal parasite and its relationship to Plasmodium” (Bioorg Med Chem, 2014).
